# Source: the Kinase Knowledgebase extract (Sharma et al. 2016)
# Several values for one entry are separate records, joined by “and”; a condition that tells them apart may be missing. Equal entries are not always repeated.
# Target: EGFR (UniProt P00533)
# Sequence (P00533 whole entry, looked up): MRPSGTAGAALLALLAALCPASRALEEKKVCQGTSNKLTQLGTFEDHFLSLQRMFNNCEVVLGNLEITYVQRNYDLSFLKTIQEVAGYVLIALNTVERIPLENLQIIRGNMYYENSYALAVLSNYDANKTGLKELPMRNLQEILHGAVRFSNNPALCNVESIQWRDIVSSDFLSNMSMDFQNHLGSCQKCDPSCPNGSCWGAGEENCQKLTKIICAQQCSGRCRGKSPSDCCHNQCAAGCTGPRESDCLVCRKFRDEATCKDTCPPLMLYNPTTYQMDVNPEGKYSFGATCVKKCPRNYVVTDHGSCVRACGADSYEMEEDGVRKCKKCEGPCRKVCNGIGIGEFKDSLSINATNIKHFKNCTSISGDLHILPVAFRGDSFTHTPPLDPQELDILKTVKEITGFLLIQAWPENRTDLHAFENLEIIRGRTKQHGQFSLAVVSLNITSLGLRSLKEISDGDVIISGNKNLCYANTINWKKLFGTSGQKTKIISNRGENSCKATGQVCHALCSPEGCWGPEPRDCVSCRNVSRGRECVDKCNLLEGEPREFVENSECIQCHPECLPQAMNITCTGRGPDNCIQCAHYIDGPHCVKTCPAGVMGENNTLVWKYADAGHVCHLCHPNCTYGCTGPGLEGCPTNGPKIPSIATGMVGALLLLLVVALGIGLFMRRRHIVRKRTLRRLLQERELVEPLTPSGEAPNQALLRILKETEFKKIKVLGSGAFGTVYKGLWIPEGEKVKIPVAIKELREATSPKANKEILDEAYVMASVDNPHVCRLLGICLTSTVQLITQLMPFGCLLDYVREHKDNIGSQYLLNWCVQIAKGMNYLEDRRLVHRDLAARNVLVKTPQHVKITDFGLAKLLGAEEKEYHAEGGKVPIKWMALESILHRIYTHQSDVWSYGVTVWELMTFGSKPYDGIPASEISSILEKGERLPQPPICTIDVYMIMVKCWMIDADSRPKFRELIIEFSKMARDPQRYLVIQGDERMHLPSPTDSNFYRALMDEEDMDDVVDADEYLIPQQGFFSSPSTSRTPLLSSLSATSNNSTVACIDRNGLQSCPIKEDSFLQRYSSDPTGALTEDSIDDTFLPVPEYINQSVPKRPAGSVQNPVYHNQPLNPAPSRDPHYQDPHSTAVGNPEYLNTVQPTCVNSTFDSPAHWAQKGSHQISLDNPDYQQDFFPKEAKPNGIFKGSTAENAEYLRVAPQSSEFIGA
row,SMILES,IC50
1,O=c1[nH]c2ccccc2n1-c1ncnc(Nc2nccc3ccccc23)n1,0.4 to 2.4 µg/mL
2,COc1cc(Nc2ncnc(Nc3ccc4c(cnn4C)c3)n2)cc(OC)c1OC,0.4 to 2.4 µg/mL
3,COc1cc(Nc2ncnc(Nc3ccc4[nH]ccc4c3)n2)cc(OC)c1OC,< 0.4 µg/mL
4,COC(=O)C(c1ccccc1)c1ncnc(Nc2cc(OC)c(OC)c(OC)c2)n1 (stereo unspecified),> 4.5 µg/mL
5,COCCCNc1ncnc(N2CCCc3cc(C)ccc32)n1,3.5 to 4.5 µg/mL
6,COc1cc(Nc2ncnc(-c3ccc(F)cc3)n2)cc(OC)c1OC,> 4.5 µg/mL
7,Fc1ccc(Nc2ncnc(Cl)n2)cc1Cl,> 4.5 µg/mL
8,COc1cc(Nc2ncnc(-n3ccnc3)n2)cc(OC)c1OC,> 4.5 µg/mL
9,Cc1ccc2c(c1)CCCN2c1ncnc(NCCCn2ccnc2)n1,> 4.5 µg/mL
10,COc1cc(Nc2ncnc(-c3cccnc3Nc3ccc(Cl)cc3C)n2)cc(OC)c1OC,> 4.5 µg/mL
11,COCCOc1ccc(Nc2ncnc(-n3c(N)nc4ccccc43)n2)cc1OC,3.5 to 4.5 µg/mL
12,COc1cc(Nc2ncnc(Nc3cc(OC)c(OC)c(OC)c3)n2)cc(OC)n1,2.4 to 3.5 µg/mL
13,COc1cc(Nc2ncnc(-n3c(NCc4ccc(F)cc4Cl)nc4ccccc43)n2)cc(OC)c1OC,3.5 to 4.5 µg/mL
14,Cc1ccc2c(c1)CCCN2c1ncnc(NCc2ccccn2)n1,> 4.5 µg/mL
15,COc1cc(C)c(Nc2ncnc(-c3cccs3)n2)cc1OC,> 4.5 µg/mL
16,COc1cc(Nc2ncnc(-n3c(Nc4ccc5cn[nH]c5c4)nc4ccccc43)n2)cc(OC)c1OC,> 4.5 µg/mL
17,COc1cc(Nc2ncnc(Nc3ccc(O)nc3)n2)cc(OC)c1OC,0.4 to 2.4 µg/mL
18,CCN(CC)CCN(C)c1ncnc(Nc2ccc(OC)c(OC)c2)n1,> 4.5 µg/mL
19,O=c1[nH]c2ccccc2n1-c1ncnc(Nc2ccc3ncccc3c2)n1,3.5 to 4.5 µg/mL
20,Cc1ccc2c(c1)CCCN2c1ncnc(Nc2cccc(Cl)c2C)n1,2.4 to 3.5 µg/mL
21,COc1cc(CNc2ncnc(Nc3cc(-c4ccco4)n[nH]3)n2)cc(OC)c1OC,> 4.5 µg/mL
22,Cc1ccc2c(c1)CCCN2c1ncnc(NCC2CCCO2)n1 (stereo unspecified),> 4.5 µg/mL
23,COc1cc(Nc2ncnc(-c3cccnc3NCc3ccccc3)n2)cc(OC)c1OC,> 4.5 µg/mL

row,SMILES,IC50
1,COc1cc(Nc2ncnc(Nc3nc4ccccc4n3C)n2)cc(OC)c1OC,> 4.5 µg/mL
2,COc1cc(Nc2ncnc(-n3c(NCc4ccc(N(C)C)cc4)nc4ccccc43)n2)cc(OC)c1OC,2.4 to 3.5 µg/mL
3,COc1cc(Nc2ncnc(N(c3ccc(Cl)cc3)c3nc4ccccc4[nH]3)n2)cc(OC)c1OC,< 0.4 µg/mL
4,COc1cc(Nc2ncnc(Nc3cccc4ccccc34)n2)cc(OC)c1OC,< 0.4 µg/mL
5,Nc1nc2ccccc2n1-c1ncnc(Nc2cccc(CC(=O)NCc3ccccn3)c2)n1,> 4.5 µg/mL
6,COc1ccc(Nc2nc3ccccc3n2-c2ncnc(Nc3cc(OC)c(OC)c(OC)c3)n2)cc1,> 4.5 µg/mL
7,O=c1[nH]c2ccccc2n1-c1ncnc(Nc2cccc([N+](=O)[O-])c2)n1,> 4.5 µg/mL
8,COc1ccc(Nc2ncnc(Nc3cc(-c4ccccc4)n[nH]3)n2)cc1OC,0.4 to 2.4 µg/mL
9,COc1cc(Nc2ncnc(-c3cccc(Cl)c3)n2)cc(OC)c1OC,> 4.5 µg/mL
10,COc1cc(Nc2ncnc(Nc3ccccc3)n2)cc(OC)c1OC,0.4 to 2.4 µg/mL
11,COc1cc(Nc2ncnc(N)n2)cc(OC)c1OC,> 4.5 µg/mL
12,Cc1ccc(-c2cc(Nc3ncnc(Nc4cc(C)ccc4C)n3)[nH]n2)cc1,< 0.4 µg/mL
13,CCOc1cccc(Nc2ncnc(N3CCCc4cc(C)ccc43)n2)c1,< 0.4 µg/mL
14,COc1cc(Nc2ncnc(-n3c(N[C@H](C)c4ccccc4)nc4ccccc43)n2)cc(OC)c1OC,> 4.5 µg/mL
15,COc1cc(Nc2ncnc(-n3c(NCc4ccc(O)cc4)nc4ccccc43)n2)cc(OC)c1OC,> 4.5 µg/mL
16,COc1cc(Nc2ncnc(-c3ccnc(Cl)c3)n2)cc(OC)c1OC,> 4.5 µg/mL
17,COc1cc(Nc2ncnc(-c3cccnc3NCc3ccc(F)cc3)n2)cc(OC)c1OCCN1CCOCC1,2.4 to 3.5 µg/mL
18,COc1ccc(Nc2ncnc(N(C)C3CCN(C)CC3)n2)cc1OC,> 4.5 µg/mL
19,COc1cc(Nc2ncnc(-c3ccc(N(C)C)nc3)n2)cc(OC)c1OC,> 4.5 µg/mL
20,COc1cc(Nc2ncnc(-c3cccnc3Nc3ccc(Oc4ccccc4)cc3)n2)cc(OC)c1OC,> 4.5 µg/mL
21,c1ccc(Nc2ncccc2-c2ncnc(Nc3ccc4[nH]ncc4c3)n2)cc1,3.5 to 4.5 µg/mL
22,COc1cc(Nc2ncnc(-n3c(NCc4ccc(Br)cc4)nc4ccccc43)n2)cc(OC)c1OC,> 4.5 µg/mL
23,COc1cc(Nc2ncnc(-n3c(NCc4ccc(Cl)cc4)nc4ccccc43)n2)cc(OC)c1OC,> 4.5 µg/mL

# More lines, now with the values ahead:
row,IC50,SMILES
1,> 4.5 µg/mL,COc1ccc(Nc2ncnc(NCc3ccc(C)c(Cl)c3)n2)cc1OC
2,> 4.5 µg/mL,COc1cc(Nc2ncnc(-n3c(NC(CCO)c4ccccc4)nc4ccccc43)n2)cc(OC)c1OC (stereo unspecified)
3,< 0.4 µg/mL,COc1ccc(Nc2ncnc(Nc3ccccc3C)n2)cc1OC
4,> 4.5 µg/mL,Oc1ccc(Nc2ncnc(-c3ccccc3)n2)cc1
5,0.4 to 2.4 µg/mL,Clc1cc(Nc2ncnc(Nc3ccc4c(cnn4Cc4ccccc4)c3)n2)cc(Cl)c1Cl
6,0.4 to 2.4 µg/mL,COc1cc(Nc2ncnc(Nc3cccc(C(C)=O)c3)n2)cc(OC)c1OC
7,> 4.5 µg/mL,COc1cc(Nc2ncnc(Nc3cccc(OCc4ccccc4)c3)n2)cc(OC)c1OC
8,2.4 to 3.5 µg/mL,COc1ccc(Nc2ncnc(-n3c(N)nc4ccccc43)n2)cc1O
9,< 0.4 µg/mL,CN(c1ccc2c(cnn2Cc2ccccc2)c1)c1ncnc(Nc2cccc(Cn3ccnn3)c2)n1
10,< 0.4 µg/mL,O=S(=O)(O)c1cccc(Nc2ncnc(Nc3cc(-c4ccco4)[nH]n3)n2)c1
11,0.4 to 2.4 µg/mL,COc1ccc(CNc2ncnc(Nc3cc(-c4ccco4)[nH]n3)n2)cc1OC
12,> 4.5 µg/mL,COc1cc(Nc2ncnc(-n3c(NCc4ncc[nH]4)nc4ccccc43)n2)cc(OC)c1OC
13,> 4.5 µg/mL and 2.4 to 3.5 µg/mL,COc1cc(Nc2ncnc(-n3c(NCc4ccc(C)cc4C)nc4ccccc43)n2)cc(OC)c1OC
14,0.4 to 2.4 µg/mL,COc1cc(Nc2ncnc(Nc3cc(-c4cccc(C)c4)n[nH]3)n2)cc(OC)c1OC
15,> 4.5 µg/mL,COc1ccc(CCNc2ncnc(Nc3cc(-c4ccco4)[nH]n3)n2)cc1OC
16,> 4.5 µg/mL,COc1cc(Nc2ncnc(Nc3nc4ccc(F)cc4s3)n2)cc(OC)c1OC
17,> 4.5 µg/mL,COc1cc(Nc2ncnc(-n3c(N)nc4cc(C(F)(F)F)ccc43)n2)cc(OC)c1OC.COc1cc(Nc2ncnc(-n3c(N)nc4ccc(C(F)(F)F)cc43)n2)cc(OC)c1OC
18,> 4.5 µg/mL,Clc1cccc(Nc2ncnc(-c3cccs3)n2)c1
19,0.4 to 2.4 µg/mL,COc1cc(Nc2ncnc(N(CC(=O)OC(C)(C)C)c3ccc(Cl)cc3)n2)cc(OC)c1OC
20,> 4.5 µg/mL,COC(=O)c1ccc(-c2cc(Nc3ncnc(Nc4cccc5ncccc45)n3)[nH]n2)cc1

row,IC50,SMILES
1,< 0.4 µg/mL,CN(c1cccc(Cl)c1)c1ncnc(Nc2cccc(CNC(=O)O[C@@H]3CCOC3)c2)n1
2,< 0.4 µg/mL,Fc1ccc(Nc2ncnc(Nc3ccc4cn[nH]c4c3)n2)cc1Cl
3,> 4.5 µg/mL,COc1cc(Nc2ncnc(-c3cccnc3)n2)cc(OC)c1OC
4,> 4.5 µg/mL,COc1cc(Nc2ncnc(Nc3[nH]ncc3-c3ccccc3)n2)cc(OC)c1OC
5,> 4.5 µg/mL,COC(=O)c1ccc(-c2cc(Nc3ncnc(NCc4ccccc4F)n3)[nH]n2)cc1
6,0.4 to 2.4 µg/mL,O=C(O)Cc1cccc(Nc2ncnc(Nc3ccc(Cl)cc3F)n2)c1
7,> 4.5 µg/mL,FC(F)C(F)(F)Oc1cccc(Nc2ncnc(-c3ccnc(Cl)c3)n2)c1
8,> 4.5 µg/mL,COc1ccc(Nc2ncnc(-n3c(N)nc4ccccc43)n2)cc1OC
9,2.4 to 3.5 µg/mL,COc1cc(Nc2ncnc(-c3cccnc3NC3CCc4ccccc43)n2)cc(OC)c1OC (stereo unspecified)
10,2.4 to 3.5 µg/mL,COc1cc(Nc2ncnc(Nc3ccc(C(C)=O)cc3)n2)cc(OC)c1OC
11,> 4.5 µg/mL,COc1cc(Nc2ncnc(Nc3cccc(CN4CCN(C)CC4)c3)n2)cc(OC)c1OC
12,> 4.5 µg/mL,COC(=O)c1ccc(-c2cc(Nc3ncnc(NCc4ccccc4OC)n3)[nH]n2)cc1
13,> 4.5 µg/mL,COc1cc(Nc2ncnc(-n3c(N)nc4ccccc43)n2)ccc1OCCN1CCOCC1
14,< 0.4 µg/mL,Cc1cccc(Nc2ncnc(Nc3cccc(Br)c3)n2)c1
15,0.4 to 2.4 µg/mL,COc1cc(Nc2ncnc(Nc3cc(F)ccc3F)n2)cc(OC)c1OC
16,0.4 to 2.4 µg/mL,COc1cc(Nc2ncnc(Nc3ccc(O)cc3Cl)n2)cc(OC)c1OC
17,3.5 to 4.5 µg/mL,COc1cc(Nc2ncnc(-n3c(NCc4cccc(F)c4)nc4ccccc43)n2)cc(OC)c1OC
18,3.5 to 4.5 µg/mL,COc1cc2ccn(-c3ncnc(Nc4cc(OC)c(OC)c(OC)c4)n3)c2cc1OC
19,> 4.5 µg/mL,CCN(CC)c1ccc(Nc2ncnc(N3CCCc4cc(C)ccc43)n2)cc1
20,> 4.5 µg/mL,COc1cc(Nc2ncnc(-n3c(NCCCCO)nc4ccccc43)n2)cc(OC)c1OC

row,IC50,SMILES
1,< 0.4 µg/mL,COc1cc(Nc2ncnc(Nc3cccc(F)c3)n2)cc(OC)c1OC
2,> 4.5 µg/mL,COc1cc(Nc2ncnc(-n3c(NCc4cccc([N+](=O)[O-])c4)nc4ccccc43)n2)cc(OC)c1OC
3,> 4.5 µg/mL,COc1ccc([C@H](C)Nc2nc3ccccc3n2-c2ncnc(Nc3cc(OC)c(OC)c(OC)c3)n2)cc1
4,0.4 to 2.4 µg/mL,CC(C)(C)OC(=O)NCc1ccc(Nc2ncnc(Nc3cc(-c4ccco4)n[nH]3)n2)cc1
5,> 4.5 µg/mL,COc1cc(Nc2ncnc(Nc3cc(OC)c(OC)c(OC)c3)n2)cc(OC)c1
6,> 4.5 µg/mL,COc1ccc(Nc2ncnc(NC[C@@H]3CCCO3)n2)cc1OC
7,> 4.5 µg/mL,COC(=O)c1ccc(-c2cc(Nc3ncnc(Nc4cc(Cl)cc(Cl)c4)n3)[nH]n2)cc1
8,0.4 to 2.4 µg/mL,CC(C)(C)c1cc(Nc2ncnc(Nc3ccc(CC(=O)O)cc3)n2)[nH]n1
9,< 0.4 µg/mL,COc1ccc(Nc2ncnc(N(C)c3cccc(Cl)c3)n2)cc1OC
10,< 0.4 µg/mL,CC(=O)c1ccc(Nc2ncnc(Nc3ccc4c(cnn4Cc4ccccc4)c3)n2)cc1
11,> 4.5 µg/mL,NC(=O)[C@H](CO)Nc1ncnc(-n2c(=O)[nH]c3ccccc32)n1
12,> 4.5 µg/mL,O=c1[nH]c2ccccc2n1-c1ncnc(Nc2cccc3cccnc23)n1
13,> 4.5 µg/mL,COc1cc(Nc2ncnc(-c3ccc(C)cc3)n2)cc(OC)c1OC
14,> 4.5 µg/mL,FC(F)(F)c1cccc(Nc2ncnc(-n3cccc3)n2)c1
15,> 4.5 µg/mL,Oc1cccc(Nc2ncnc(-c3ccccc3)n2)c1
16,0.4 to 2.4 µg/mL,COC(=O)Cc1cccc(Nc2ncnc(Nc3ccc(C)c(O)c3)n2)c1
17,> 4.5 µg/mL,COC(=O)c1cccc(Nc2ncnc(Nc3cc(-c4ccco4)n[nH]3)n2)c1
18,> 4.5 µg/mL,COc1cc(Nc2ncnc(-n3c(NCc4cccc(Cl)c4)nc4ccccc43)n2)cc(OC)c1OC
19,> 4.5 µg/mL,CCN(CC)CCCNc1ccc(-c2ncnc(Nc3cc(OC)c(OC)c(OC)c3)n2)cn1
20,> 4.5 µg/mL,COC(=O)c1ccc(-c2cc(Nc3ncnc(NCc4cccnc4)n3)[nH]n2)cc1
